Assay results as given in patent US10568892B2, “Cycloartane tetracyclic triterpenoid compound, preparation method therefor and use thereof” (Hefei Cosource Pharmaceuticals Inc., priority 2016, dated 2020).
Where two headings read alike, the source gives them in different places. Marks after values point to notes of the source that are not given here.

Legend:
guinea pig heart = experiment: Atrial fibrillation induced by high- and low-potassium Langendorff perfusion of the guinea pig heart; details: for Incidence (%) of atrial fibrillation / Number of animals developing atrial fibrillation: within 60 min of low-potassium perfusion
Excerpt: Method: a total of 24 guinea pigs were divided into 4 groups according to body weight, and were sacrificed. The heart was quickly taken out, and the blood was squeezed in the ice bath perfusion solution. The heart was quickly transferred in the Langendorff perfusion system, and the perfusion at a constant rate was started by turning on the oxygen-saturated perfusate. One end of the electrode was placed at the cardiac apex, and one end was placed at the right atrium (the position of the atrial appendage). The electrocardiogram was recorded on the computer.
After the heart was stabilized, 10 min after the perfusion of high-K perfusate, blank vehicle, 0.1 μM, 1 μM, and 10 μM of Compound 369, 1 μM Amiodarone and Cyclovirobuxine D were simultaneously administrated and the high K perfusion was continued for 20 min, respectively. Then, the high K perfusion was removed to administrate the low-K perfusate, and the electrocardiogram was obtained at the same time to record whether there was atrial fibrillation within 60 min of low-potassium perfusion.

[1] = tested on: ventricular papillary muscle cell of guinea pig; experiment: Action potential of the ventricular papillary muscle cell of guinea pig (electrophysiological recording); assay type: cell-based; details: for percent change in action potential duration at 0.0005 µM / percent change in action potential duration at 0.005 µM / percent change in action potential duration at 0.05 µM: Cavia porcellus, 20 min, read-out: APD, Change rate (%); for APD50, Pre-administration / APD90, Pre-administration: baseline; for Effect on the APD value of the action potential of the papillary muscle (in words): Table 3 summary
Method: Method: One guinea pig was taken to violently hit the back of the brain such that it fainted. The common carotid artery was cut off for bleeding to kill the guinea pig. The chest was incised to expose the heart, and the ventricle was cut open along the interventricular septum to expose the lumen of the left ventricle. The papillary muscles were quickly taken out and placed in a Kreb's solution saturated with O2 (mixed gas of 95% O2 and 5% CO2) at 0° C. After the microscopic dressing, the papillary muscle specimen was fixed with a stainless steel needle on the silicone rubber at the bottom of the perfusion bath, and perfused with the oxygen-saturated Kreb's solution. The relevant parameters for perfusion: the temperature was 37±0.5° C., and the flow rate was 4 mL/min.
Cellular action potentials were recorded using a conventional electrophysiological method. The glass electrode filled with 3M KCl saturated solution and having a tip resistance of 15-30 MΩ was fixed on the microelectrode manipulator MP-2. The glass electrode was gently inserted into the superficial layer of the prepared papillary muscle specimen using a microelectrode pusher. The electrode was adjusted to provide the predetermined bioelectrical stimulation with the triple-channel SEN-7203 electronic stimulator and SS-202 J isolator. The bioelectrical signal was amplified by the MEZ-8301 amplifier and then input to the computerized electrophysiological recording and analysis system Powerlab 4/25. Subsequently, the relevant parameters of the action potential for the ventricular papillary muscle were analyzed through the analysis system. The relevant parameters for electrical stimulation: 30 ms latency, 7 ms wavewidth, 1 Hz frequency, 52.1 my stimulation intensity.
In the compound screening test stage, after the ventricular papillary muscle specimen of the guinea pig was fixed, it was first perfused with a normal Kreb's solution for about 85 minutes for stabilization, and the relevant parameters of the cellular action potential before administration were recorded at about 80 min after the start of perfusion. The three-limb tube was used to convert the perfusates containing the title compounds. The title compounds were continuously perfused for about 25 min successively with low (0.0005 μM), medium (0.005 μM), and high (0.05 μM) concentrations, respectively. At about 20 min after the start of drug perfusions at different concentrations, the relevant parameters of the action potentials for the ventricular papillary muscle of guinea pig were observed and recorded, respectively. The normal Kreb's solution was used to perfuse and elute for about 25 min during the intervals between drug perfusions at different concentrations.
The experiment was divided into the following five groups with 6 animals in each group: a vehicle control group, a 369 low dose (0.0005 μM) group, a 369 medium dose (0.005 μM) group, a 369 high dose (0.05 μM) group, and an amiodarone (10 μM) positive control group. After the ventricular papillary muscle specimen of the guinea pig was fixed, it was first perfused with a normal Kreb's solution for about 85 minutes for stabilization, and the relevant parameters of the cellular action potential before administration were recorded at about 80 min after the start of perfusion. According to groups, the three-limb tube was configured to convert the perfusates containing the vehicle, positive control, or Compound 369 at the corresponding concentrations to continuously perfuse for about 25 min. At about 20 min after the start of the perfusions, the relevant parameters of the action potentials for the ventricular papillary muscle of guinea pig were observed and recorded.

SMILES: CN[C@H]1CC[C@]23C[C@]24CC[C@]2(C)C(C(C)=O)=CC[C@@]2(C)[C@@H]4CC[C@H]3C1(C)C [Compound 369, (3β,5α)-4,4,14-trimethyl-3-(methylamino)-9,19-cyclopregnan-16-en-20-one]
- Number of animals developing atrial fibrillation compared to the vehicle group (in words) (guinea pig heart; 0.1 μM to 10 μM, dose-dependent): significantly decreased
- Incidence (%) of atrial fibrillation (guinea pig heart; 0.1 μM): 80%
- Number of animals developing atrial fibrillation (guinea pig heart; 0.1 μM): 4
- Incidence of atrial fibrillation for ex vivo heart vs cyclovirobuxine D (in words) (guinea pig heart; 1 μM): significantly lower
- Incidence (%) of atrial fibrillation (guinea pig heart; 1 μM): 33%
- Number of animals developing atrial fibrillation (guinea pig heart; 1 μM): 2
- Incidence (%) of atrial fibrillation (guinea pig heart; 10 μM): 0%
- Number of animals developing atrial fibrillation (guinea pig heart; 10 μM): 0
- Effect on APD, APD50 and APD90 (in words) ([1]; 0.0005 μM, 0.005 μM and 0.05 μM, concentration-dependent): can prolong APD, APD50 and APD90
- percent change in action potential duration at 0.0005 µM ([1]; n = 6, x ± SD, 0.0005 μM): 43.6%
- percent change in action potential duration at 0.005 µM ([1]; n = 6, x ± SD, 0.005 μM): 43.5%
- percent change in action potential duration at 0.05 µM ([1]; n = 6, x ± SD, 0.05 μM): 66.5%
- percent change in action potential duration at 0.0005 µM ([1]; screening stage, 0.0005 μM): 26.8%
- percent change in action potential duration at 0.005 µM ([1]; screening stage, 0.005 μM): 47.9%
- percent change in action potential duration at 0.05 µM ([1]; screening stage, 0.05 μM): 65.7%
- APD50, Change rate (%) ([1]; n = 6, x ± SD, 0.0005 μM): 49.41% ± 16.99%
- APD50, Post-administration ([1]; n = 6, x ± SD, 0.0005 μM): 0.0572 ± 0.0247^a
- APD90, Change rate (%) ([1]; n = 6, x ± SD, 0.0005 μM): 44.30% ± 17.58%^b
- APD90, Post-administration ([1]; n = 6, x ± SD, 0.0005 μM): 0.0795 ± 0.0260^a
- APD, Post-administration ([1]; n = 6, x ± SD, 0.0005 μM): 0.0930 ± 0.0246^a
- APD50, Pre-administration ([1]; n = 6, x ± SD, 0.0005 μM group): 0.0365 ± 0.0183
- APD90, Pre-administration ([1]; n = 6, x ± SD, 0.0005 μM group): 0.0537 ± 0.0235
- APD50, Change rate (%) ([1]; n = 6, x ± SD, 0.005 μM): 47.25% ± 28.78%
- APD50, Post-administration ([1]; n = 6, x ± SD, 0.005 μM): 0.0610 ± 0.0342^a
- APD90, Change rate (%) ([1]; n = 6, x ± SD, 0.005 μM): 40.25% ± 24.21%^b
- APD90, Post-administration ([1]; n = 6, x ± SD, 0.005 μM): 0.0838 ± 0.0345^a
- APD, Post-administration ([1]; n = 6, x ± SD, 0.005 μM): 0.1023 ± 0.0365^a
- APD50, Pre-administration ([1]; n = 6, x ± SD, 0.005 μM group): 0.0428 ± 0.0244
- APD90, Pre-administration ([1]; n = 6, x ± SD, 0.005 μM group): 0.0604 ± 0.0243
- APD50, Change rate (%) ([1]; n = 6, x ± SD, 0.05 μM): 101.63% ± 62.10%^b
- APD50, Post-administration ([1]; n = 6, x ± SD, 0.05 μM): 0.0764 ± 0.0270^a
- APD90, Change rate (%) ([1]; n = 6, x ± SD, 0.05 μM): 70.81% ± 46.76%^b
- APD90, Post-administration ([1]; n = 6, x ± SD, 0.05 μM): 0.1006 ± 0.0242^a
- APD, Post-administration ([1]; n = 6, x ± SD, 0.05 μM): 0.1199 ± 0.0235^a
- APD50, Pre-administration ([1]; n = 6, x ± SD, 0.05 μM group): 0.0385 ± 0.0090
- APD90, Pre-administration ([1]; n = 6, x ± SD, 0.05 μM group): 0.0603 ± 0.0103
- Effect on the APD value of the action potential of the papillary muscle (in words) ([1]; screening stage): the strongest effect
- Effect on the APD value of the action potential of the papillary muscle (in words) ([1]; screening stage, listed as Example 1): a certain degree of prolonged effects
- APD, Post-administration ([1]; screening stage, 0.0005 μM, about 20 min perfusion): 0.0912
- APD, Post-administration ([1]; screening stage, 0.005 μM, about 20 min perfusion): 0.1031
- APD, Post-administration ([1]; screening stage, 0.05 μM, about 20 min perfusion): 0.1168
